Laboratory results published in US9643953B2, “Substituted benzylpyrazoles” (Bayer Intellectual Property GmbH, priority 2011, dated 2017).
Read-outs that look alike come from different tables or passages of the source.

Assays:
[1] = target: T1, catalytic domain of human Bub1 (amino acids 704-1085) (Homo sapiens, UniProt O43683); assay: Bub1 kinase assay (TR-FRET); type: biochemical; conditions: ATP 10 μM, peptide substrate 1 μM, 60 min at 22° C.
T1 construct: catalytic domain of human Bub1 (amino acids 704-1085); His6 (N); made in house; host or cells: Hi5 insect cells
Description: To this end, 100-fold concentrated compound solutions (in DMSO) were previously prepared by serial dilution (1:3.4) of 2 mM stocks in a clear low volume 384-well source microtiter plate (Greiner Bio-One, Frickenhausen, Germany), from which 50 nl of compounds were transferred into a black low volume test microtiter plate from the same supplier. […] The resulting mixture (5 μl final volume) was incubated at 22° C. during 60 min., and the reaction was stopped by the addition of 5 μl of an aqueous EDTA-solution (50 mM EDTA, in 100 mM HEPES pH 7.5 and 0.2% (w/v) bovine serum albumin) which also contained the TR-FRET detection reagents (0.2 μM streptavidin-XL665 [Cisbio Bioassays, Codolet, France] and 1 nM anti-phosho-Serine antibody [Merck Millipore, cat. #35-001] and 0.4 nM LANCE EU-W1024 labeled anti-mouse IgG antibody [Perkin-Elmer, product no. AD0077, alternatively a Terbium-cryptate-labeled anti-mouse IgG antibody from Cisbio Bioassays can be used]). The stopped reaction mixture was further incubated 1 h at 22° C. in order to allow the formation of complexes between peptides and detection reagents. Subsequently, the amount of product was evaluated by measurement of the resonance energy transfer from the Eu-chelate-antibody complex recognizing the Phosphoserine residue to the streptavidin-XL665 bound to the biotin moiety of the peptide. […] IC50 values were calculated by fitting the normalized inhibition data to a 4-parameter logistic equation (Minimum, Maximum, IC50, Hill; Y=Max+(Min−Max)/(1+(X/IC50)Hill)).

HeLa cell line = assay: Proliferation assay (HeLa cell line); conditions: Homo sapiens, HeLa, 96 h;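 note: crystal violet staining of cell number, absorbance read at 595 nm, compounds tested at 0.001–10 µM, zero-point plate taken as 0% and untreated cells as 100%, four-parameter fit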
Description: (§1) Cultivated tumor cells (cells were ordered from ATCC, except HeLa-MaTu and HeLa-MaTu-ADR, which were ordered from EPO-GmbH, Berlin) were plated at a density of 1000 to 5000 cells/well, depending on the growth rate of the respective cell line, in a 96-well multititer plate in 200 μL of their respective growth medium supplemented 10% fetal calf serum. After 24 hours, the cells of one plate (zero-point plate) were stained with crystal violet (see below), while the medium of the other plates was replaced by fresh culture medium (200 μl), to which the test substances were added in various concentrations (0 μM, as well as in the range of 0.001-10 μM; the final concentration of the solvent dimethyl sulfoxide was 0.5%). The cells were incubated for 4 days in the presence of test substances. Cell proliferation was determined by staining the cells with crystal violet: the cells were fixed by adding 20 μl/measuring point of an 11% glutaric aldehyde solution for 15 minutes at room temperature. After three washing cycles of the fixed cells with water, the plates were dried at room temperature. The cells were stained by adding 100 μl/measuring point of a 0.1% crystal violet solution (pH 3.0). After three washing cycles of the stained cells with water, the plates were dried at room temperature. The dye was dissolved by adding 100 μl/measuring point of a 10% acetic acid solution. Absorption was determined by photometry at a wavelength of 595 nm. The change of cell number, in percent, was calculated by normalization of the measured values to the absorption values of the zero-point plate (=0%) and the absorption of the untreated (0 μm) cells (=100%). The IC50 values were determined by means of a 4 parameter fit.

H460 cell line = assay: Proliferation assay (H460 cell line); conditions: Homo sapiens, NCI-H460, 96 h, read-out: Biological Assay 2: Proliferation assay (H460 cell line) median IC50
Description: as §1

DU145 cell line = assay: Proliferation assay (DU145 cell line); conditions: Homo sapiens, DU-145, 96 h, read-out: Biological Assay 2: Proliferation assay (DU145 cell line) median IC50
Description: as §1

Caco2 cell line = assay: Proliferation assay (Caco2 cell line); conditions: Homo sapiens, Caco-2, 96 h, read-out: Biological Assay 2: Proliferation assay (Caco2 cell line) median IC50
Description: as §1

B16F10 cell line = assay: Proliferation assay (B16F10 cell line); conditions: Mus musculus, B16-F10, 96 h, read-out: Biological Assay 2: Proliferation assay (B16F10 cell line) median IC50
Description: as §1

HeLa-MaTu-ADR cell line = assay: Proliferation assay (HeLa-MaTu-ADR cell line); conditions: 96 h, read-out: Biological Assay 2: Proliferation assay (HeLa-MaTu-ADR cell line) median IC50
Description: as §1

[2] = TR-FRET, read-out: Biological Assay 1: Bub1 kinase assay median IC50
[3] = read-out: Biological Assay 2: Proliferation assay (HeLa cell line) median IC50
[4] = read-out: Biological Assay 2: Proliferation assay (HeLa cell line) median IC50, HeLa cells, 4 days incubation, crystal violet staining
[5] = Biological Assay 1: Bub1 kinase assay median IC50, TR-FRET

T1 sequence (O43683 704-1085): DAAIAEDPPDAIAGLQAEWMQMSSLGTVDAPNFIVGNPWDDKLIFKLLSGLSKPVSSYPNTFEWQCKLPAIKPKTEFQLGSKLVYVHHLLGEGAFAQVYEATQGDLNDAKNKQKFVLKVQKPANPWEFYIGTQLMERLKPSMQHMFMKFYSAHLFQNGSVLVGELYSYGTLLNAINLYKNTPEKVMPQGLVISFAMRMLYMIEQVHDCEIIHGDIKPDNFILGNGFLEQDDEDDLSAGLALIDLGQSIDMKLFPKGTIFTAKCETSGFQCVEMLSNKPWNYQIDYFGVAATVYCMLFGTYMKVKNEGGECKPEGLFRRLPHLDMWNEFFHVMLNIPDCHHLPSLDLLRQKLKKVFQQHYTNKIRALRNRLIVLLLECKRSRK

SMILES	IC50 (HeLa cell line; [3]) [µM]	IC50 [1, 5] [µM]	IC50 [1, 2] [µM]	also measured
CCOc1cc(F)c(Cn2nc(-c3ncc(O)c(Nc4ccncc4)n3)c(C)c2C2CC2)c(Sc2ccccc2)c1 [Example 2-2-2, 2-{5-cyclopropyl-1-[4-ethoxy-2-fluoro-6-(phenylsulfanyl)benzyl]-4-methyl-1H-pyrazol-3-yl}-4-(pyridin-4-ylamino)pyrimidin-5-ol]			0.0539	IC50 (HeLa cell line; [4]): 4.97 µM
CCOc1cc(F)c(Cn2nc(-c3ncc(OCCN(C)C)c(Nc4ccncc4)n3)c(C)c2C2CC2)c(F)c1 [Example 2-3-1, 2-[5-cyclopropyl-1-(4-ethoxy-2,6-difluorobenzyl)-4-methyl-1H-pyrazol-3-yl]-5-[2-(dimethylamino)ethoxy]-N-(pyridin-4-yl)pyrimidin-4-amine]	3.45	0.00745		IC50 (H460 cell line): 1.46 µM; IC50 (DU145 cell line): 3.2 µM; IC50 (Caco2 cell line): 1.94 µM; IC50 (B16F10 cell line): 0.422 µM; IC50 (HeLa-MaTu-ADR cell line): 1.26 µM
CCOc1cc(F)c(Cn2nc(-c3ncc(OCC4(CO)COC4)c(Nc4ccncc4)n3)c(C)c2C2CC2)c(F)c1 [Example 2-3-2, {3-[({2-[5-cyclopropyl-1-(4-ethoxy-2,6-difluorobenzyl)-4-methyl-1H-pyrazol-3-yl]-4-(pyridin-4-ylamino)pyrimidin-5-yl}oxy)methyl]oxetan-3-yl}methanol]	6	0.00523		
CCOc1cc(F)c(Cn2nc(-c3ncc(OCCCSC)c(Nc4ccncc4)n3)c(C)c2C2CC2)c(F)c1 [Example 2-3-8, 2-[5-cyclopropyl-1-(4-ethoxy-2,6-difluorobenzyl)-4-methyl-1H-pyrazol-3-yl]-5-[3-(methylsulfanyl)propoxy]-N-(pyridin-4-yl)pyrimidin-4-amine]	2.96	0.0137		
CCOc1cc(F)c(Cn2nc(-c3ncc(OCC4(CO)COC4)c(Nc4ccncc4)n3)c(C)c2C2CC2)c(Sc2ccccc2)c1 [Example 2-3-9, [3-({[2-{5-cyclopropyl-1-[4-ethoxy-2-fluoro-6-(phenylsulfanyl)benzyl]-4-methyl-1H-pyrazol-3-yl}-4-(pyridin-4-ylamino)pyrimidin-5-yl]oxy}methyl)oxetan-3-yl]-methanol]			0.249	IC50 (HeLa cell line; [4]): 6.46 µM
CCOc1cc(F)c(Cn2nc(-c3ncc(OCCCS(C)(=O)=O)c(Nc4ccncc4)n3)c(C)c2C2CC2)c(F)c1 [Example 2-3-10, 2-[5-cyclopropyl-1-(4-ethoxy-2,6-difluorobenzyl)-4-methyl-1H-pyrazol-3-yl]-5-[3-(methylsulfonyl)propoxy]-N-(pyridin-4-yl)pyrimidin-4-amine]	1.13	0.00949		IC50 (H460 cell line): 1.55 µM; IC50 (DU145 cell line): 1.61 µM; IC50 (Caco2 cell line): 1.41 µM; IC50 (B16F10 cell line): 1.18 µM; IC50 (HeLa-MaTu-ADR cell line): 0.755 µM
COc1cnc(-c2cc(OC)n(Cc3ccccc3F)n2)nc1Nc1ccncc1C(N)=O [Example 2-4-1, 4-({2-[1-(2-fluorobenzyl)-5-methoxy-1H-pyrazol-3-yl]-5-methoxypyrimidin-4-yl}amino)pyridine-3-carboxamide]	> 10		0.0415	
CCOc1cc(F)c(Cn2nc(-c3ncc(OCCC[S+](C)[O-])c(Nc4ccncc4)n3)c(C)c2C2CC2)c(F)c1 (stereo not shown) [Example 2-8-4, 2-[5-cyclopropyl-1-(4-ethoxy-2,6-difluorobenzyl)-4-methyl-1H-pyrazol-3-yl]-5-[3-(methylsulfinyl)propoxy]-N-(pyridin-4-yl)pyrimidin-4-amine]			0.0079	IC50 (HeLa cell line; [4]): 4.31 µM
CCOc1cc(F)c(Cn2nc(-c3ncc(OCCS(C)(=O)=O)c(Nc4ccncc4)n3)c(C)c2C2CC2)c(F)c1 [Example 2-9-1, 2-[5-cyclopropyl-1-(4-ethoxy-2,6-difluorobenzyl)-4-methyl-1H-pyrazol-3-yl]-5-[2-(methylsulfonyl)ethoxy]-N-(pyridin-4-yl)pyrimidin-4-amine]	5.17	0.00787		
COc1cnc(-c2nn(Cc3c(F)c(F)c(OCC(F)(F)F)c(F)c3F)c(C3CC3)c2C)nc1Nc1ccncc1 [Example 2-10-2, 2-{5-cyclopropyl-4-methyl-1-[2,3,5,6-tetrafluoro-4-(2,2,2-trifluoroethoxy)benzyl]-1H-pyrazol-3-yl}-5-methoxy-N-(pyridin-4-yl)pyrimidin-4-amine]	5.28		0.0613	

Continued, in another order:

IC50 (HeLa cell line; [3]) [µM]	IC50 [1, 5] [µM]	SMILES	IC50 [1, 2] [µM]	also measured
4.38		CCOc1cc(F)c(Cn2nc(-c3ncc(OC)c(Nc4ccncc4)n3)c(C)c2C2CC2)c(F)c1 [Example 2-1-12, 2-[5-cyclopropyl-1-(4-ethoxy-2,6-difluorobenzyl)-4-methyl-1H-pyrazol-3-yl]-5-methoxy-N-(pyridin-4-yl)pyrimidin-4-amine]	0.00603	IC50 (H460 cell line): 2.62 µM; IC50 (DU145 cell line): 3.09 µM; IC50 (Caco2 cell line): 2.13 µM; IC50 (B16F10 cell line): 2.24 µM; IC50 (HeLa-MaTu-ADR cell line): 3.08 µM
3.59	0.00786	CCOc1cc(F)c(Cn2nc(-c3ncc(OCCO)c(Nc4ccncc4)n3)c(C)c2C2CC2)c(F)c1 [Example 2-3-3, 2-({2-[5-cyclopropyl-1-(4-ethoxy-2,6-difluorobenzyl)-4-methyl-1H-pyrazol-3-yl]-4-(pyridin-4-ylamino)pyrimidin-5-yl}oxy)ethanol]		
5.57	0.0108	CCOc1cc(F)c(Cn2nc(-c3ncc(OCCSC)c(Nc4ccncc4)n3)c(C)c2C2CC2)c(F)c1 [Example 2-3-4, 2-[5-cyclopropyl-1-(4-ethoxy-2,6-difluorobenzyl)-4-methyl-1H-pyrazol-3-yl]-5-[2-(methylsulfanyl)ethoxy]-N-(pyridin-4-yl)pyrimidin-4-amine]		
3.2	0.00555	CCOc1cc(F)c(Cn2nc(-c3ncc(OCS(N)(=O)=O)c(Nc4ccncc4)n3)c(C)c2C2CC2)c(F)c1 [Example 2-3-5, 1-({2-[5-cyclopropyl-1-(4-ethoxy-2,6-difluorobenzyl)-4-methyl-1H-pyrazol-3-yl]-4-(pyridin-4-ylamino)pyrimidin-5-yl}oxy)methanesulfonamide]		
3.23	0.0105	CCOc1cc(F)c(Cn2nc(-c3ncc(OC)c(Nc4ccncc4C(N)=O)n3)c(C)c2C2CC2)c(F)c1 [Example 2-4-2, 4-({2-[5-cyclopropyl-1-(4-ethoxy-2,6-difluorobenzyl)-4-methyl-1H-pyrazol-3-yl]-5-methoxypyrimidin-4-yl}amino)nicotinamide]		
4.46	0.00932	CCOc1cc(F)c(Cn2nc(-c3nccc(Nc4ccncc4C(N)=O)n3)c(C)c2C2CC2)c(F)c1 [Example 2-4-3, 4-({2-[5-cyclopropyl-1-(4-ethoxy-2,6-difluorobenzyl)-4-methyl-1H-pyrazol-3-yl]pyrimidin-4-yl}amino)nicotinamide]		
> 10	0.00877	CCOc1cc(F)c(Cn2nc(-c3nccc(Nc4ccncc4C#N)n3)c(C)c2C2CC2)c(F)c1 [Example 2-6-6, 4-({2-[5-cyclopropyl-1-(4-ethoxy-2,6-difluorobenzyl)-4-methyl-1H-pyrazol-3-yl]pyrimidin-4-yl}amino)nicotinonitrile]		
